Experiments:
E. coli HisRS = details: cited from earlier work
P. aeruginosa HisRS = target: T1, P. aeruginosa HisRS (Pseudomonas aeruginosa, UniProt Q9HXJ5); test: ATP:PPi exchange reactions; type: biochemical; details: substrate varied, other substrate constant at 2 mM
T1 sequence (Q9HXJ5 1-429): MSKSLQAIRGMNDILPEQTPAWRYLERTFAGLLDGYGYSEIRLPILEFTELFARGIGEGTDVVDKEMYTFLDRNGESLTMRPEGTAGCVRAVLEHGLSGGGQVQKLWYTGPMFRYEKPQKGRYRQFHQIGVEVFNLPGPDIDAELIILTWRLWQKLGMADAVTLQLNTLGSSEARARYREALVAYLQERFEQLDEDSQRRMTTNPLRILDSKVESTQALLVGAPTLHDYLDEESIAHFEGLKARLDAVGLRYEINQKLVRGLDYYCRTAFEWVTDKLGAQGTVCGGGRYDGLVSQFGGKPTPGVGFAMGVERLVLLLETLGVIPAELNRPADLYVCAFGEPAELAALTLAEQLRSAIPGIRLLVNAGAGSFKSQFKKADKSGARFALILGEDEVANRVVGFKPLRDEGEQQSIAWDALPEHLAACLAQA

[1] = substrate: Nc1ncnc2c1ncn2[C@@H]1O[C@H](COP(=O)(O)OP(=O)(O)OP(=O)(O)O)[C@@H](O)[C@H]1O; test: ATP:[32P]PPi exchange at pH 7.5, 37 °C, 0.05 µM HisRS, ATP varied; type: biochemical
[2] = substrate: N[C@@H](Cc1c[nH]cn1)C(=O)O; test: ATP:PPi exchange reactions; type: biochemical, Pseudomonas aeruginosa; details: other: substrate varied, other substrate constant at 2 mM; pH 7.5; 37.0 °C

## Nc1ncnc2c1ncn2[C@@H]1O[C@H](COP(=O)(O)OP(=O)(O)OP(=O)(O)O)[C@@H](O)[C@H]1O [ATP]
E. coli HisRS; E. coli HisRS ref 12
  Km: 890 µM
E. coli HisRS; E. coli HisRS, interaction with ATP ref 24
  kcat: 34 s⁻¹
P. aeruginosa HisRS
  Km: 298 µM
  kcat (turnover number): 16.8 s⁻¹

## N[C@@H](Cc1c[nH]cn1)C(=O)O [histidine]
E. coli HisRS; E. coli HisRS, interaction with His, different research groups ref 24, 25
  turnover: 7 to 142 s⁻¹

B1: P. aeruginosa HisRS (Pseudomonas aeruginosa PAO1) (protein)
chain: MSKSLQAIRGMNDILPEQTPAWRYLERTFAGLLDGYGYSEIRLPILEFTELFARGIGEGTDVVDKEMYTFLDRNGESLTMRPEGTAGCVRAVLEHGLSGGGQVQKLWYTGPMFRYEKPQKGRYRQFHQIGVEVFNLPGPDIDAELIILTWRLWQKLGMADAVTLQLNTLGSSEARARYREALVAYLQERFEQLDEDSQRRMTTNPLRILDSKVESTQALLVGAPTLHDYLDEESIAHFEGLKARLDAVGLRYEINQKLVRGLDYYCRTAFEWVTDKLGAQGTVCGGGRYDGLVSQFGGKPTPGVGFAMGVERLVLLLETLGVIPAELNRPADLYVCAFGEPAELAALTLAEQLRSAIPGIRLLVNAGAGSFKSQFKKADKSGARFALILGEDEVANRVVGFKPLRDEGEQQSIAWDALPEHLAACLAQA
[1]
  Km: 298.5 µM
[2]
  Km: 37.6 µM
  kcat: 8.32 s⁻¹

Reference: publication PMC5794219 (SLAS discovery : advancing life sciences R & D, 2017)
